Results taken from patent US9987276B2 (Celgene CAR LLC, priority 2008, dated 2018).
Read-outs that look alike come from different tables or passages of the source.

Columns and labels:
BTK [1] = biological target: T1, BTK (Homo sapiens (Human), UniProt Q06187); experiment: Omnia assay for potency assessment against BTK; type: biochemical; details: [BTK]=5 nM, Omnia assay; read-out: BTK Inhibition (IC50)
Procedure: The modified BTK-optimized reagent conditions for the above protocol are:
[BTK]=5 nM, [ATP]=[…], [Y5-Sox]=[…] (ATP KMapp˜[…]).

EGFR-WT = EGFR-WT (Homo sapiens (Human), UniProt P00533); experiment: Omnia assay for potency assessment against EGFR (WT)
BTK [2] = biological target: T1, BTK; experiment: BTK Ramos cellular assay (PLCγ2 phosphorylation); type: cell-based; details: Ramos cells, 1 hour compound, anti-IgM stimulation, p-PLCγ2; read-out: BTK Inhibition (IC50), BTK Ramos cellular inhibition
EGFR-T790M/L858R = EGFR-T790M/L858R (Homo sapiens (Human), UniProt P00533, L858R/T790M); experiment: Omnia assay for potency assessment against EGFR (T790M/L858R); details: read-out: EGFR (T790M/L858R); EGFR mutant T790M/L858R
EGFR T790M = EGFR T790M (Homo sapiens (Human), UniProt P00533, T790M); experiment: EGFR mutant T790M inhibition assay; type: biochemical
Procedure: The Omnia Assay Protocol for potency assessment against EGFR is performed as described in Example 251 above except that the EGFR-WT- and EGFR T790M/L858R-modified optimized reagent conditions are: […]

BMX = BMX (Homo sapiens (Human), UniProt P51813); experiment: Omnia assay for potency assessment against active forms of BMX kinase; type: biochemical; details: [BMX]=2.5 nM, [ATP]=100 μM, [Y5-Sox]=7.5 μM; read-out: BMX Inhibition
Procedure: Briefly, 10× stocks of EGFR-WT (PV3872) from Invitrogen and EGFR-T790M/L858R (40350) from BPS Bioscience, San Diego, Calif., 1.13×ATP (AS001A) and appropriate Tyr-Sox conjugated peptide substrates (KCZ1001) were prepared in 1× kinase reaction buffer consisting of 20 mM Tris, pH 7.5, 5 mM MgCl2, 1 mM EGTA, 5 mM β-glycerophosphate, 5% glycerol (10× stock, KB002A) and 0.2 mM DTT (DS001A).
This example describes continuous-read kinase assays to measure inherent potency of compound against active forms of BMX enzymes as described in Example 251 above except that the modified BMX-optimized reagent conditions are:
[BMX]=2.5 nM, [ATP]=100 μM, [Y5-Sox]=7.5 μM (ATP KMapp=107 μM).

ITK = ITK (Homo sapiens (Human), UniProt Q08881); experiment: Omnia assay for potency assessment against active forms of ITK kinase; type: biochemical; details: [ITK]=10 nM, [ATP]=25, [Y6-Sox]=10 μM; read-out: ITK Inhibition
Procedure: [ITK]=10 nM, [ATP]=25 [Y6-Sox]=10 μM (ATP KMapp=33 μM).

BTK [3] = biological target: T1, BTK; experiment: Washout experiment with Ramos cells; type: cell-based; details: 100 nM compound for 1 hour, then washout
Procedure: Ramos cells were serum starved for one hour in RPMI media+1% glutamine at 37° C. After starvation, Ramos cells were treated with 100 nM compound diluted in serum free RPMI media for 1 hour. After compound treatment, the media was removed and cells were washed with compound-free media. Subsequently, Ramos cells were washed every 2 hours and resuspended in fresh compound-free media. Cells were collected at specified timepoints, treated with 1 ug anti-human IgM (Southern Biotech cat #2022-01) for 10 minutes on ice to induce BCR signaling and then washed in PBS. Ramos cells were then lysed in Cell Extraction Buffer (Invitrogen FNN0011) supplemented with Roche complete protease inhibitor tablets (Roche 11697498001) and phosphatase inhibitors (Roche 04 906 837 001) and 18 ug total protein lysate was loaded in each lane. Inhibition of BTK kinase activity was assayed by measuring its substrate (PLCγ2) phosphorylation by western blot with phospho-specific antibodies from Cell Signaling Technologies cat #3871. The results of this experiment with compounds I-2, I-4 and I-7 are depicted in FIGS. 1, 2 and 3.

BTK [4] = biological target: T1, BTK; experiment: Mass spectrometry for BTK (intact protein); type: binding; details: 1 hr, 10× fold excess of compound
Procedure: Intact BTK was incubated for 1 hr at a 10× fold excess of I-7 to protein. Aliquots (2 μl) of the samples were diluted with 10 μl of 0.1% TFA prior to micro C4 ZipTipping directly onto the MALDI target using Sinapinic acid as the desorption matrix (10 mg/ml in 0.1% TFA:Acetonitrile 20:80).

DOHH2 = experiment: B cell lymphoma proliferation assay, DOHH2; type: cell-based
[5] = read-out: EGFR (wild type inhibition), EGFR wild type

EGFR-WT, sequence (P00533 668-1210): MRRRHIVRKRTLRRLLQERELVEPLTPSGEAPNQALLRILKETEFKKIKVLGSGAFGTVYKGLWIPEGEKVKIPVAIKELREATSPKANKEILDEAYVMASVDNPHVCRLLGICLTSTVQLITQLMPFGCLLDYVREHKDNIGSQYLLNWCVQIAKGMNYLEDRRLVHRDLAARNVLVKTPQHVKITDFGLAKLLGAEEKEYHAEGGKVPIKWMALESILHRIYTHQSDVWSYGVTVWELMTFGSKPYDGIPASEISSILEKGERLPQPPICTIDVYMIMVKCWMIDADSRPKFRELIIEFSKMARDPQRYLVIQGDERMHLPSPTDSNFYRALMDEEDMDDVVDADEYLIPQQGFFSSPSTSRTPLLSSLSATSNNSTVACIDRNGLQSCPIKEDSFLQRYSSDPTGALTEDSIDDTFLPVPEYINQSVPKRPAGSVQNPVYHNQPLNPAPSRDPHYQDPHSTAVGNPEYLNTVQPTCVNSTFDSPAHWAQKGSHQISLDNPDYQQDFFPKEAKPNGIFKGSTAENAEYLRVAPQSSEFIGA
BMX, sequence (P51813 whole entry): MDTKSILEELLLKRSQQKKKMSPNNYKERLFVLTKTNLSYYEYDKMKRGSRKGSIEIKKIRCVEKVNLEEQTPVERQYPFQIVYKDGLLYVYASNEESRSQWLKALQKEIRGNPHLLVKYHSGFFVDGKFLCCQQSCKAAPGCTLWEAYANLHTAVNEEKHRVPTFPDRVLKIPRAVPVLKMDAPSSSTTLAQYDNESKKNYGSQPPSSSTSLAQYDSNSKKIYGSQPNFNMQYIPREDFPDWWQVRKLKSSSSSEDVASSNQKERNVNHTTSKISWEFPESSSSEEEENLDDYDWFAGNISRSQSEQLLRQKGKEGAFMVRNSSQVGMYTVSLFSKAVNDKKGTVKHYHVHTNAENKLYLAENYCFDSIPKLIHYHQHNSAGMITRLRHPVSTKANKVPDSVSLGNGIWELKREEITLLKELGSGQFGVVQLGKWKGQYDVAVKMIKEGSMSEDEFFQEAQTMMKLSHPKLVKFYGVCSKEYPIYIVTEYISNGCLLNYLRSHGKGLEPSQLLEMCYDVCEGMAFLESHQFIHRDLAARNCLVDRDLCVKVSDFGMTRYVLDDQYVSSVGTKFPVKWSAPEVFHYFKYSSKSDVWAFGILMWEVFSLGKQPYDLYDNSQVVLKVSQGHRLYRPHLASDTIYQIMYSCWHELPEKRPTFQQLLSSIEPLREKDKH
EGFR-T790M/L858R, sequence (P00533 25-1210 T790M/L858R): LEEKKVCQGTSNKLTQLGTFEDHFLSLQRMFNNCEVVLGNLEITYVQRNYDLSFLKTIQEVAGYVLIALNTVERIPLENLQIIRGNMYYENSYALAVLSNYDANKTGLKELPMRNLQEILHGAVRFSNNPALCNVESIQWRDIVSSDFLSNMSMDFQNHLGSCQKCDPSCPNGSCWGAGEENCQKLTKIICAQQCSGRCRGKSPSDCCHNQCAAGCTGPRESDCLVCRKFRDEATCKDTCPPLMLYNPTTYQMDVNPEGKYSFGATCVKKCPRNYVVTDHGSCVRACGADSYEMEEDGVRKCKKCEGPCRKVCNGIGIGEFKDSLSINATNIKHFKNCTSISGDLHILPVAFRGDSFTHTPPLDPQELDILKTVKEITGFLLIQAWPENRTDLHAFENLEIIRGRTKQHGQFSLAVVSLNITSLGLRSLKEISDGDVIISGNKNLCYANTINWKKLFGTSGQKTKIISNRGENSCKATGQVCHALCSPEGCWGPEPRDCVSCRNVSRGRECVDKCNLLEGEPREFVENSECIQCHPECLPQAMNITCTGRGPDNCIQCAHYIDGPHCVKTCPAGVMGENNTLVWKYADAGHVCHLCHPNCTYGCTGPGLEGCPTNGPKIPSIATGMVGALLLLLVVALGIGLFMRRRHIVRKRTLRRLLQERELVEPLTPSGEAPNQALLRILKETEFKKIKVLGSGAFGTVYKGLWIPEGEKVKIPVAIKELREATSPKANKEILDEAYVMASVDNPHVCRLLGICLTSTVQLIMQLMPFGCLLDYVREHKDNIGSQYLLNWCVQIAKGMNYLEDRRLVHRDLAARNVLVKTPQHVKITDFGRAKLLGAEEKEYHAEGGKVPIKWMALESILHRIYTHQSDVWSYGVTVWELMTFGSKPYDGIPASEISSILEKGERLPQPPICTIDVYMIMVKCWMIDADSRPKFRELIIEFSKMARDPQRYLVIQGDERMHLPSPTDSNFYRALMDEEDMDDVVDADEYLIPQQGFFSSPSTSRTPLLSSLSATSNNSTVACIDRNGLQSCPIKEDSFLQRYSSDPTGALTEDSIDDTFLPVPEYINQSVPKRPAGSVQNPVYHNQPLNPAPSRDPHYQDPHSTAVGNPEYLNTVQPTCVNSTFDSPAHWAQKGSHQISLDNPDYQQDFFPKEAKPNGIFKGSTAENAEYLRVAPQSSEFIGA
T1 sequence (Q06187 whole entry): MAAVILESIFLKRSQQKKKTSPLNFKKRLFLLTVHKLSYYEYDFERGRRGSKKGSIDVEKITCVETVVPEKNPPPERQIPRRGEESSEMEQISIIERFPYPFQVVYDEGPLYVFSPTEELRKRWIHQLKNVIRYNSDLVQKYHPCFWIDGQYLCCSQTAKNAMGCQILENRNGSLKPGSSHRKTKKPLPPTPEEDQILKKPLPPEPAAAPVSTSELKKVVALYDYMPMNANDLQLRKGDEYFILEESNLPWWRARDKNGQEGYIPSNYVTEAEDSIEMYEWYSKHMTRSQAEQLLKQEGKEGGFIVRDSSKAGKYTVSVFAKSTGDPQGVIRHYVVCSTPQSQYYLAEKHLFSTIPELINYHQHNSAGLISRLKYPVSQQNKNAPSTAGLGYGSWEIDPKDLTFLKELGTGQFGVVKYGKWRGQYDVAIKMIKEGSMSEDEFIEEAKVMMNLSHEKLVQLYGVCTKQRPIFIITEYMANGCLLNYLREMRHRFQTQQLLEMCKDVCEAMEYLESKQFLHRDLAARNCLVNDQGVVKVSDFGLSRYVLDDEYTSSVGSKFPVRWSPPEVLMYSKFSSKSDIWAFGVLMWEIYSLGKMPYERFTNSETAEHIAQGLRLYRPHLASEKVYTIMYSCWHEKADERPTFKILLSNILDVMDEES
ITK, sequence (Q08881 whole entry): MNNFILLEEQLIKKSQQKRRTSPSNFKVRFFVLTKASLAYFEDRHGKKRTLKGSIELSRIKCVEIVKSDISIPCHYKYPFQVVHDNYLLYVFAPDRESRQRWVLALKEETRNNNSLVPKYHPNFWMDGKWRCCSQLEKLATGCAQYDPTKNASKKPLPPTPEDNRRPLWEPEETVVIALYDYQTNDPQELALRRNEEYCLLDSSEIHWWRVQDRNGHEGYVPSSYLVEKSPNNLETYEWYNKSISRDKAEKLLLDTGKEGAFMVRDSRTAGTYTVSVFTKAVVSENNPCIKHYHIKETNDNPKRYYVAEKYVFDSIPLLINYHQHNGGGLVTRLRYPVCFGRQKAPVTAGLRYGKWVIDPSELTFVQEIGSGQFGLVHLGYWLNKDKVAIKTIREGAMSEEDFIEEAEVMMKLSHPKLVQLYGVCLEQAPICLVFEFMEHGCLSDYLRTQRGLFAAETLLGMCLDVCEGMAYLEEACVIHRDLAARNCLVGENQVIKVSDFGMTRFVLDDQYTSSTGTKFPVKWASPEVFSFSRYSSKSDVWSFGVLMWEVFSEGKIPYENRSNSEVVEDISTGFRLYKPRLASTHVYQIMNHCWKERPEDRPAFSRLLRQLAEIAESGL
EGFR T790M, sequence (P00533 25-1210 T790M): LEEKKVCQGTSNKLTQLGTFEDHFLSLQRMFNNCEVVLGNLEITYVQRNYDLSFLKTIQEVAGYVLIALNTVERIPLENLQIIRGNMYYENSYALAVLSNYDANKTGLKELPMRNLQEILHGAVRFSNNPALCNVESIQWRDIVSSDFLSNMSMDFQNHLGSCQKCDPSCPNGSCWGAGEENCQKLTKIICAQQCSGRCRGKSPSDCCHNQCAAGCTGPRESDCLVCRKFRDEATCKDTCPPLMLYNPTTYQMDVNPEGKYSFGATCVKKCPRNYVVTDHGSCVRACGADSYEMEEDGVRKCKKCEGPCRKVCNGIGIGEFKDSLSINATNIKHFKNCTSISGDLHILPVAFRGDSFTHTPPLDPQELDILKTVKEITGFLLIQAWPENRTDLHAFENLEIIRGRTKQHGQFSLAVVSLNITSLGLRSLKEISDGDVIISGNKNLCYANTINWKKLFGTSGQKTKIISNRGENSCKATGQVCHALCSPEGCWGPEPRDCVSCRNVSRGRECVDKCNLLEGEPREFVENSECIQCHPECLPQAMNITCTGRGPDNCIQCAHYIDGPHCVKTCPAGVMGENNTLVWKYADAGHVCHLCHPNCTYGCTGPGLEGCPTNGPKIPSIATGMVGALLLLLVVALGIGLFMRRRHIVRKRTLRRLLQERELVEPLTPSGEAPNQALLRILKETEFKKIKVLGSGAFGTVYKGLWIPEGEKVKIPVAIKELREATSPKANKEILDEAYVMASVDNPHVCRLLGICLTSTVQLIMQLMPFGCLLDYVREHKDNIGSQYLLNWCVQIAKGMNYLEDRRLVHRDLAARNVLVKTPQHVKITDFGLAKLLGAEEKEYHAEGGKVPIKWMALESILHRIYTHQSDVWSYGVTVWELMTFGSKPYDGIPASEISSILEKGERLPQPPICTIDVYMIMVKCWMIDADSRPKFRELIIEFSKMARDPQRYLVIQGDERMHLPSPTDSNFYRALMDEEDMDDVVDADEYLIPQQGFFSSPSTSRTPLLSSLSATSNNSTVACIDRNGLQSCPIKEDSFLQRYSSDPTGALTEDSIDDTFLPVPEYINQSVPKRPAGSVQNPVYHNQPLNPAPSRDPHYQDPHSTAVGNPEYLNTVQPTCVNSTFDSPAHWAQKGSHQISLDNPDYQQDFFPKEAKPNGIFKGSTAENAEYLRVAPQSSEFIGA

IC50 (BTK [1]) [nM]	IC50 (EGFR-WT; [5]) [nM]	IC50 (BTK [2]) [nM]	IC50 (EGFR-T790M/L858R) [nM]	IC50 (EGFR T790M) [nM]	IC50 (EGFR-WT) [nM]	IC50 (BMX) [nM]	IC50 (ITK) [nM]	BTK Inhibition Type (BTK [3])	covalent modification of BTK (mass spectrometry) (BTK [4])	EC50 (DOHH2) [µM]	SMILES
< 10	< 10	10 to 100	< 10	< 10							C=CC(=O)Nc1cccc(Nc2ncc(F)c(Nc3cccc(C)c3)n2)c1 [Compound I-3, N-(3-(5-fluoro-4-(m-tolylamino)pyrimidin-2-ylamino)phenyl) acrylamide]
< 10					10 to 100	< 10	10 to 100	irreversible			C=CC(=O)Nc1cccc(Nc2nc(Nc3ccccc3)ncc2F)c1 [Compound I-28, N-(3-(5-fluoro-2-(phenylamino)pyrimidin-4-ylamino)phenyl)acrylamide]
< 10		< 10	< 10		10 to 100	< 10	10 to 100	irreversible			C#CCOc1cccc(Nc2ncc(C)c(Nc3cccc(NC(=O)C=C)c3)n2)c1 [Compound I-35, N-(3-(5-methyl-2-(3-(prop-2-ynyloxy)phenylamino)pyrimidin-4-ylamino)phenyl) acrylamide]
< 10		10 to 100	< 10		10 to 100	< 10	10 to 100	reversible			Cc1cnc(Nc2ccccc2)nc1Nc1cccc(NC(=O)/C=C/CN(C)C)c1 [Compound I-38, (E)-4-(dimethylamino)-N-(3-(5-methyl-2-(phenylamino)pyrimidin-4-ylamino)phenyl)but-2-enamide]
< 10					10 to 100				completely modify		C=C(C#N)C(O)c1cccc(Nc2nc(Nc3ccc(OCCOC)cc3)ncc2F)c1 (stereo not drawn) [Compound I-71, 2-((3-(5-fluoro-2-(4-(2-methoxyethoxy)phenylamino)pyrimidin-4-ylamino)phenyl)(hydroxy)methyl)acrylonitrile]
< 10	1000 to 10000	10 to 100					1000 to 10000		completely modify		C=CC(=O)N1CCOc2ccc(Nc3ncc(F)c(Nc4cccc(Cl)c4)n3)cc21 [Compound I-149, 1-(6-(4-(3-chlorophenylamino)-5-fluoropyrimidin-2-ylamino)-2H-benzo[b][1,4]oxazin-4(3H)-yl)prop-2-en-1-one]
< 10					10 to 100				completely modify		C=C(C#N)C(O)c1ccc(Nc2nc(Nc3ccccc3)ncc2F)cc1 (stereo not drawn) [Compound I-161, 2-((4-(5-fluoro-2-(phenylamino)pyrimidin-4-ylamino)phenyl)(hydroxy)methyl)acrylonitrile]
< 10		10 to 100					< 10			1 to 10	C=CC(=O)N1CCOc2ccc(Nc3nc(Nc4ccc(OC)nc4)ncc3C(C)=O)cc21 [Compound I-170, 1-{6-[5-Acetyl-2-(6-methoxy-pyridin-3-ylamino)-pyrimidin-4-ylamino]-2,3-dihydro-benzo[1,4]oxazin-4-yl}-propenone]
< 10		10 to 100			10 to 100		10 to 100		completely modify		C=CC(=O)N1CCC[C@@H](Nc2nc(Nc3cccc(OC)c3)ncc2F)C1 [Compound I-195, (R)-1-(3-(5-fluoro-2-(3-methoxyphenylamino)pyrimidin-4-ylamino)piperidin-1-yl)prop-2-en-1-one]
< 10		100 to 1000			100 to 1000		< 10		completely modify		CC(C)=CC(=O)c1cccc(Nc2nc(Nc3cccc(OCCN(C)C)c3)ncc2F)c1 [Compound I-207]
< 10		10 to 100			10 to 100		10 to 100		completely modify		C=CC(=O)N(C)Cc1ccc(Nc2nc(Nc3ccccc3)ncc2C)cc1 [Compound I-219, N-methyl-N-(4-(5-methyl-2-(phenylamino)pyrimidin-4-ylamino)benzyl)acrylamide]
< 10		< 10			10 to 100		10 to 100	irreversible			C=CC(=O)Nc1cccc(Oc2nc(Nc3ccccc3)ncc2F)c1 [Compound I-228, N-(3-(5-fluoro-2-(phenylamino)pyrimidin-4-yloxy)phenyl)acrylamide]
< 10		< 10			10 to 100		< 10	irreversible			C=CC(=O)Nc1cccc(Nc2nc(Nc3cccc(OC)c3)ncc2C(F)(F)F)c1 [Compound I-242, N-(3-(5-trifluoromethyl-2-(3-methoxyphenylamino)pyrimidin-4-ylamino)phenyl)acrylamide]
< 10		< 10			10 to 100		10 to 100	irreversible			C=CC(=O)Nc1cccc(Nc2nc(Nc3ccc(OC)nc3)ncc2F)c1 [Compound I-243, N-(3-(5-fluoro-2-(6-methoxypyridin-3-ylamino)pyrimidin-4-ylamino)phenyl)acrylamide]
< 10		10 to 100			100 to 1000	< 10	100 to 1000		completely modify		C=CC(=O)Nc1cccc(Nc2nc(Nc3cccc(OC(F)(F)F)c3)ncc2F)c1 [Compound I-244, N-(3-(5-fluoro-2-(3-(trifluoromethoxy)phenylamino)pyrimidin-4-ylamino)phenyl)acrylamide]
< 10		< 10			10 to 100	< 10	10 to 100	irreversible			C=CC(=O)Nc1cccc(Nc2nc(Nc3ccc(F)cc3)ncc2F)c1 [Compound I-247, N-(3-(5-fluoro-2-(4-fluorophenylamino)pyrimidin-4-ylamino)phenyl)acrylamide]
< 10	< 10	< 10				< 10	< 10	irreversible			C=CC(=O)Nc1cccc(Oc2nc(Nc3ccccc3)ncc2C)c1 [Compound I-248, N-(3-(5-methyl-2-(phenylamino)pyrimidin-4-yloxy)phenyl)acrylamide]
